Measured values as given in PubChem BioAssay (NCI).
Several values for one entry are separate records, joined by “and”; a condition that tells them apart may be missing. Equal entries are not always repeated.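 48-hour exposure; five concentrations; linearly interpolated endpoints. At the GI50, growth is halved. The concentration for full growth arrest is given as TGI.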

Tests used:
Assay in all cases: NCI anticancer screen, dose series, 48 h
[1] = tested on: M14 melanoma
[2] = tested on: SF-539 CNS
[3] = tested on: NCI-H23 lung
[4] = tested on: CAKI-1 renal
[5] = tested on: SK-MEL-28 melanoma
[6] = tested on: TK-10 renal
[7] = tested on: SF-295 CNS
[8] = tested on: SK-MEL-5 melanoma
[9] = tested on: RXF-631 renal
[10] = tested on: OVCAR-8 ovarian
[11] = tested on: COLO 205 colon
[12] = tested on: K-562 leukemia
[13] = tested on: RPMI-8226 leukemia
[14] = tested on: OVCAR-3 ovarian
[15] = tested on: CCRF-CEM leukemia
[16] = tested on: LOX IMVI melanoma
[17] = tested on: NCI-H460 lung
[18] = tested on: SW-620 colon
[19] = tested on: UACC-257 melanoma
[20] = tested on: DMS 114 small cell lung
[21] = tested on: A549 NSCLC
[22] = tested on: HOP-62 NSCLC
[23] = tested on: UACC-62 melanoma
[24] = tested on: DMS 273 small cell lung
[25] = tested on: DLD-1 colon
[26] = tested on: UO-31 renal
[27] = tested on: MOLT-4 leukemia
[28] = tested on: RXF 393 renal
[29] = tested on: OVCAR-4 ovarian
[30] = tested on: SNB-78 CNS
[31] = tested on: MALME-3M melanoma
[32] = tested on: SNB-19 CNS
[33] = tested on: HCT-15 colon
[34] = tested on: HL-60(TB) leukemia
[35] = tested on: SNB-75 CNS
[36] = tested on: SK-OV-3 ovarian
[37] = tested on: XF 498 CNS
[38] = tested on: U251 CNS
[39] = tested on: HCT-116 colon
[40] = tested on: ACHN renal
[41] = tested on: HOP-92 NSCLC
[42] = tested on: SN12C renal
[43] = tested on: IGROV1 ovarian
[44] = tested on: HT29 colon
[45] = tested on: M19-MEL melanoma
[46] = tested on: HOP-18 NSCLC
[47] = tested on: EKVX NSCLC
[48] = tested on: KM20L2 colon
[49] = tested on: SK-MEL-2 melanoma
[50] = tested on: OVCAR-5 ovarian
[51] = tested on: KM12 colon
[52] = tested on: A498 renal
[53] = tested on: 786-0 renal
[54] = tested on: NCI-H226 lung
[55] = tested on: NCI-H522 lung
[56] = tested on: SR leukemia
[57] = tested on: LXFL 529 NSCLC
[58] = tested on: HCC-2998 colon
[59] = tested on: SF-268 CNS

`CC(=O)OCC1=C(C(=O)O)C(c2ccc3c(c2)OCO3)c2cc3c(cc2O1)OCO3` (configuration not stated) gave a TGI [1] greater than 100 µM, a TGI [2] greater than 100 µM and a TGI [3] greater than 100 µM. For the same compound, the TGI [4] was greater than 100 µM, the TGI [5] was greater than 100 µM and the TGI [6] was greater than 100 µM. It also gave a TGI [7] greater than 100 µM, a TGI [8] greater than 100 µM and a TGI [9] greater than 100 µM. It also gave a TGI [10] greater than 100 µM, a TGI [11] greater than 100 µM and a TGI [12] greater than 100 µM. The TGI [13] was greater than 100 µM, the TGI [14] was greater than 100 µM and the TGI [15] was greater than 100 µM. It also gave a TGI [16] greater than 100 µM, a TGI [17] greater than 100 µM and a TGI [18] greater than 100 µM. For the same compound, the TGI [19] was greater than 100 µM, the TGI [20] was greater than 100 µM and the TGI [21] was greater than 100 µM. The TGI [22] was greater than 100 µM, the TGI [23] was greater than 100 µM and the TGI [24] was greater than 100 µM. The TGI [25] was greater than 100 µM, the TGI [26] was greater than 100 µM and the TGI [27] was greater than 100 µM. The TGI [28] was greater than 100 µM, the TGI [29] was greater than 100 µM and the TGI [30] was greater than 100 µM. For the same compound, the TGI [31] was greater than 100 µM, the TGI [32] was greater than 100 µM and the TGI [33] was greater than 100 µM. For the same compound, the TGI [34] was greater than 100 µM, the TGI [35] was greater than 100 µM and the TGI [36] was greater than 100 µM. The TGI [37] was greater than 100 µM, the TGI [38] was greater than 100 µM and the TGI [39] was greater than 100 µM. It also gave a TGI [40] greater than 100 µM, a TGI [41] greater than 100 µM and a TGI [42] greater than 100 µM. The TGI [43] was greater than 100 µM, the TGI [44] was greater than 100 µM and the TGI [45] was greater than 100 µM. The TGI [46] was greater than 100 µM, the TGI [47] was greater than 100 µM and the TGI [48] was greater than 100 µM.
For `C=C(C)C1CC=C(C)CC1` (configuration not stated), the GI50 [1] was greater than 100 µM, the TGI [1] was > 100 µM and 1700 µM and the GI50 [2] was greater than 100 µM. The TGI [2] was > 100 µM and 1690 µM, the GI50 [3] was greater than 100 µM and the TGI [3] was > 100 µM and 1690 µM. For the same compound, the GI50 [49] was greater than 100 µM, the TGI [49] was > 100 µM and 1720 µM and the GI50 [4] was greater than 100 µM. For the same compound, the TGI [4] was > 100 µM and 1680 µM, the GI50 [50] was greater than 100 µM and the TGI [50] was > 100 µM and 2420 µM. The GI50 [5] was greater than 100 µM, the TGI [5] was > 100 µM and 1680 µM and the GI50 [6] was greater than 100 µM. The TGI [6] was > 100 µM and 1760 µM, the GI50 [51] was greater than 100 µM and the TGI [51] was > 100 µM and 1830 µM. The GI50 [7] was greater than 100 µM, the TGI [7] was > 100 µM and 1630 µM and the GI50 [8] was greater than 100 µM. The TGI [8] was > 100 µM and 1560 µM, the TGI [52] was 1610 µM and the GI50 [9] was greater than 100 µM. The TGI [9] was > 100 µM and 1720 µM, the GI50 [10] was greater than 100 µM and the TGI [10] was > 100 µM and 1860 µM. The GI50 [53] was greater than 100 µM, the TGI [53] was > 100 µM and 1620 µM and the GI50 [11] was greater than 100 µM. For the same compound, the TGI [11] was > 100 µM and 1760 µM, the GI50 [12] was greater than 100 µM and the TGI [12] was > 100 µM and 1720 µM. The GI50 [54] was greater than 100 µM, the TGI [54] was > 100 µM and 1570 µM and the TGI [13] was greater than 100 µM. The GI50 [14] was greater than 100 µM, the TGI [14] was > 100 µM and 1590 µM and the GI50 [15] was greater than 100 µM. For the same compound, the TGI [15] was > 100 µM and 1670 µM, the GI50 [16] was greater than 100 µM and the TGI [16] was > 100 µM and 1620 µM. For the same compound, the GI50 [17] was greater than 100 µM, the TGI [17] was > 100 µM and 1730 µM and the GI50 [18] was greater than 100 µM. For the same compound, the TGI [18] was > 100 µM and 1590 µM, the GI50 [19] was greater than 100 µM and the TGI [19] was > 100 µM and 1850 µM. For the same compound, the GI50 [20] was greater than 100 µM, the TGI [20] was > 100 µM and 1650 µM and the GI50 [55] was greater than 100 µM. For the same compound, the TGI [55] was > 100 µM and 1710 µM, the GI50 [21] was greater than 100 µM and the TGI [21] was > 100 µM and 1790 µM. The GI50 [22] was greater than 100 µM, the TGI [22] was > 100 µM and 1630 µM and the GI50 [23] was greater than 100 µM. For the same compound, the TGI [23] was > 100 µM and 1550 µM, the GI50 [56] was greater than 100 µM and the TGI [56] was > 100 µM and 2050 µM. For the same compound, the GI50 [24] was greater than 100 µM, the TGI [24] was > 100 µM and 1720 µM and the GI50 [25] was greater than 100 µM. For the same compound, the TGI [25] was > 100 µM and 1610 µM, the GI50 [26] was greater than 100 µM and the TGI [26] was > 100 µM and 1620 µM. For the same compound, the GI50 [27] was greater than 100 µM, the TGI [27] was > 100 µM and 2180 µM and the GI50 [28] was greater than 100 µM. The TGI [28] was > 100 µM and 1730 µM, the GI50 [29] was greater than 100 µM and the TGI [29] was > 100 µM and 2070 µM. For the same compound, the GI50 [30] was greater than 100 µM, the TGI [30] was > 100 µM and 1960 µM and the GI50 [31] was greater than 100 µM. The TGI [31] was > 100 µM and 1690 µM, the GI50 [32] was greater than 100 µM and the TGI [32] was > 100 µM and 1870 µM. The TGI [33] was 1620 µM, the GI50 [34] was greater than 100 µM and the TGI [34] was > 100 µM and 1720 µM. The GI50 [35] was greater than 100 µM, the TGI [35] was > 100 µM and 1710 µM and the GI50 [36] was greater than 100 µM. The TGI [36] was > 100 µM and 1900 µM, the GI50 [37] was greater than 100 µM and the TGI [37] was > 100 µM and 1720 µM. The GI50 [38] was greater than 100 µM, the TGI [38] was > 100 µM and 1480 µM and the GI50 [57] was greater than 100 µM. For the same compound, the TGI [57] was > 100 µM and 1550 µM, the GI50 [58] was greater than 100 µM and the TGI [58] was > 100 µM and 1730 µM. For the same compound, the GI50 [39] was greater than 100 µM, the TGI [39] was > 100 µM and 1620 µM and the GI50 [40] was greater than 100 µM. For the same compound, the TGI [40] was > 100 µM and 1570 µM, the GI50 [41] was greater than 100 µM and the TGI [41] was > 100 µM and 1530 µM. The GI50 [42] was greater than 100 µM, the TGI [42] was > 100 µM and 1640 µM and the GI50 [43] was greater than 100 µM. The TGI [43] was > 100 µM and 1830 µM, the GI50 [59] was greater than 100 µM and the TGI [59] was > 100 µM and 1680 µM. For the same compound, the GI50 [44] was greater than 100 µM, the TGI [44] was > 100 µM and 1730 µM and the GI50 [45] was greater than 100 µM. The TGI [45] was > 100 µM and 1580 µM, the TGI [46] was greater than 100 µM and the GI50 [47] was greater than 100 µM. The TGI [47] was > 100 µM and 1830 µM, the GI50 [48] was greater than 100 µM and the TGI [48] was > 100 µM and 1750 µM.
